According to US12371421B2, “Solid forms of a PARP7 inhibitor” (Ribon Therapeutics, Inc., priority 2019, dated 2025):

Columns and labels:
Experiment in all cases: Cancer cell growth inhibition (CellTiter-Glo)
Format in all cases: cell-based
NCI-H1373 = conditions: Homo sapiens; NCI-H1373, lung adenocarcinoma; 144 hours
Protocol: (§1) Cells were plated into 384-well plates at a pre-specified density in fetal bovine serum-containing media. Cells were treated with compound or vehicle (DMSO) 24 hrs later, and a day zero plate was collected for analysis. Test compound plates were incubated continuously for 144 hours before cells and cell growth was assessed using a luminescent cell viability assay (CellTiter-Glo, Promega). The GI50 was determined by correcting for the cell count at time zero (time of treatment) and plotting data as percent growth relative to vehicle-treated cells.

Panc 03.27 = conditions: Homo sapiens, PANC-03-27; Panc 03.27, pancreatic adenocarcinoma; 144 hours
Protocol: as §1

TYK-nu = conditions: high grade ovarian serious adenocarcinoma, 144 hours
Protocol: as §1

NCI-H2444 = conditions: Homo sapiens; NCI-H2444, non-small cell lung carcinoma; 144 hours
Protocol: as §1

SCC-25 = conditions: Homo sapiens; SCC-25, tongue squamous cell carcinoma; 144 hours
Protocol: as §1

AGS = conditions: Homo sapiens, gastric adenocarcinoma, 144 hours
Protocol: as §1

SK-LU-1 = conditions: Homo sapiens; SK-LU-1, lung adenocarcinoma; 144 hours
Protocol: as §1

HT-1080 = conditions: Homo sapiens; HT-1080, fibrosarcoma; 144 hours
Protocol: as §1

EBC-1 = conditions: Homo sapiens; EBC-1, squamous cell lung carcinoma; 144 hours
Protocol: as §1

HCC827 = conditions: Homo sapiens; HCC827, lung adenocarcinoma; 144 hours
Protocol: as §1

TUHR10TKB = conditions: renal cell carcinoma, 144 hours
Protocol: as §1

LN-18 = conditions: Homo sapiens; LN-18, glioblastoma; 144 hours
Protocol: as §1

TE-11 = conditions: Homo sapiens; TE-11, esophageal squamous cell carcinoma; 144 hours
Protocol: as §1

MDA-MB-468 = conditions: Homo sapiens; MDA-MB-468, breast adenocarcinoma; 144 hours
Protocol: as §1

NCI-H2009 = conditions: Homo sapiens; NCI-H2009, lung adenocarcinoma; 144 hours
Protocol: as §1

MCAS = conditions: ovarian mucinous cystadenocarcinoma, 144 hours
Protocol: as §1

SF126 = conditions: Homo sapiens, SF-126; SF126, glioblastoma multiforme; 144 hours
Protocol: as §1

CFPAC-1 = conditions: Homo sapiens; CFPAC-1, pancreatic ductal adenocarcinoma; 144 hours
Protocol: as §1

SNU-840 = conditions: SNU-840, malignant ovarian Brenner tumor; 144 hours
Protocol: as §1

NCI-H1648 = conditions: Homo sapiens; NCI-H1648, lung adenocarcinoma; 144 hours
Protocol: as §1

Caki-1 = conditions: Homo sapiens; Caki-1, clear cell renal cell carcinoma; 144 hours
Protocol: as §1

SW900 = conditions: Homo sapiens; SW900, squamous cell lung carcinoma; 144 hours
Protocol: as §1

SK-MES-1 = conditions: Homo sapiens; SK-MES-1, squamous cell lung carcinoma; 144 hours
Protocol: as §1

NCI-H1930 = conditions: Homo sapiens; NCI-H1930, small cell lung carcinoma; 144 hours
Protocol: as §1

SK-MEL-2 = conditions: Homo sapiens; SK-MEL-2, malignant melanoma; 144 hours
Protocol: as §1

NCI-H647 = conditions: Homo sapiens; NCI-H647, lung adenosquamous carcinoma; 144 hours
Protocol: as §1

KALS-1 = conditions: Homo sapiens; KALS-1, glioblastoma; 144 hours
Protocol: as §1

A101D = conditions: Homo sapiens, melanoma, 144 hours
Protocol: as §1

COR-L105 = conditions: Homo sapiens; COR-L105, lung adenocarcinoma; 144 hours
Protocol: as §1

KMBC-2 = conditions: KMBC-2, bladder carcinoma; 144 hours
Protocol: as §1

COLO 680N = conditions: Homo sapiens, esophageal squamous cell carcinoma, 144 hours
Protocol: as §1

YD-10B = conditions: tongue squamous cell carcinoma, 144 hours
Protocol: as §1

H4 = conditions: H4, neuroglioma; 144 hours
Protocol: as §1

NCI-H2066 = conditions: NCI-H2066, squamous cell lung carcinoma; 144 hours
Protocol: as §1

HPAF-II = conditions: Homo sapiens, pancreatic adenocarcinoma, 144 hours
Protocol: as §1

NUGC-3 = conditions: Homo sapiens; NUGC-3, gastric adenocarcinoma; 144 hours
Protocol: as §1

SCaBER = conditions: Homo sapiens, bladder squamous cell carcinoma, 144 hours
Protocol: as §1

GCT = conditions: Homo sapiens, undifferentiated pleiomorphic sarcoma, 144 hours
Protocol: as §1

C[C@@H](COCCC(=O)N1CCN(c2ncc(C(F)(F)F)cn2)CC1)Nc1cn[nH]c(=O)c1C(F)(F)F [Compound 1, 5-[[(2S)-1-(3-oxo-3-[4-[5-(trifluoromethyl)pyrimidin-2-yl]piperazin-1-yl]propoxy)propan-2-yl]amino]-4-(trifluoromethyl)-2,3-dihydropyridazin-3-one]
GI50 (NCI-H1373): < 100 nM | GI50 (Panc 03.27): < 100 nM | GI50 (TYK-nu): < 100 nM | GI50 (NCI-H2444): ≥ 1000 nM | GI50 (SCC-25): < 100 nM | GI50 (AGS): ≥ 1000 nM | GI50 (SK-LU-1): ≥ 1000 nM | GI50 (HT-1080): ≥ 1000 nM | GI50 (EBC-1): < 100 nM | GI50 (HCC827): < 100 nM | GI50 (TUHR10TKB): < 100 nM | GI50 (LN-18): ≥ 1000 nM | GI50 (TE-11): ≥ 1000 nM | GI50 (MDA-MB-468): ≥ 1000 nM | GI50 (NCI-H2009): ≥ 1000 nM | GI50 (MCAS): ≥ 1000 nM | GI50 (SF126): ≥ 1000 nM | GI50 (CFPAC-1): 100 to 1000 nM | GI50 (SNU-840): ≥ 1000 nM | GI50 (NCI-H1648): ≥ 1000 nM | GI50 (Caki-1): < 100 nM | GI50 (SW900): 100 to 1000 nM | GI50 (SK-MES-1): ≥ 1000 nM | GI50 (NCI-H1930): ≥ 1000 nM | GI50 (SK-MEL-2): ≥ 1000 nM | GI50 (NCI-H647): < 100 nM | GI50 (KALS-1): ≥ 1000 nM | GI50 (A101D): ≥ 1000 nM | GI50 (COR-L105): 100 to 1000 nM | GI50 (KMBC-2): ≥ 1000 nM | GI50 (COLO 680N): ≥ 1000 nM | GI50 (YD-10B): ≥ 1000 nM | GI50 (H4): ≥ 1000 nM | GI50 (NCI-H2066): ≥ 1000 nM | GI50 (HPAF-II): ≥ 1000 nM | GI50 (NUGC-3): ≥ 1000 nM | GI50 (SCaBER): ≥ 1000 nM | GI50 (GCT): < 100 nM
